How the values were obtained:
[1] = biological target: Acetylcholinesterase (Homo sapiens, UniProt P22303); test: Acetylcholinesterase Inhibitory Assay; settings: pH 8; 25 °C
Protocol: Briefly, 140 μL of sodium phosphate buffer (pH 8.0), 20 μL of each tested compound with different concentrations (4, 20, and 100 μM) and 20 μL enzyme solution were mixed and incubated at room temperature for 15 min. The reactions were initiated by the addition of 10 μL of 0.01 M 5,5'-dithiobis(2-nitrobenzoic acid) (DTNB) and 10 μL of 0.075 ATCI. […] The reaction was independently experimented for three times and recorded in 96-well microplates using a microplate reader (VersaMax).

[2] = biological target: T1, Tyrosine-protein phosphatase non-receptor type 1 (Homo sapiens, UniProt P18031); test: PTP1B Inhibitory Assay; settings: pH 6
T1 sequence (P18031 whole entry): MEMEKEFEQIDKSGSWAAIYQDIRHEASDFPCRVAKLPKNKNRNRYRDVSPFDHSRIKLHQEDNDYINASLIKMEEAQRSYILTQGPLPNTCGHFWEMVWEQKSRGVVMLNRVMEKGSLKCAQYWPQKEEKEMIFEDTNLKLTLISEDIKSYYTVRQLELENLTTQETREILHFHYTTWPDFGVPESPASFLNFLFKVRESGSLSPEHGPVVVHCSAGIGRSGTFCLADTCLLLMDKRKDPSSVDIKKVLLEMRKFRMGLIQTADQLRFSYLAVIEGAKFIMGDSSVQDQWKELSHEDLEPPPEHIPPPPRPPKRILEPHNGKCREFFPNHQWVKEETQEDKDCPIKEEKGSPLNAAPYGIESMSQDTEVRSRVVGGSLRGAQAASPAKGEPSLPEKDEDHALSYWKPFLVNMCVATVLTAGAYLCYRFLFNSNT
Protocol: PTP1B activity was measured by adding 2mM p-NPP and PTP1B in a 50 mM citrate buffer (pH 6.0, 0.1 M NaCl, 1 mMEDTA, and 1 mM dithiothreitol), with or without tested compounds. The plate was pre-incubated at 37 °C for 10 min, and then 50 μL of p-NPP in buffer was added. After incubating at 37 °C for 30 min, the reaction was then terminated with 1 N NaOH.

[3] = biological target: T1, Tyrosine-protein phosphatase non-receptor type 1; test: Kinetic Analysis
Protocol: The reaction mixtures contained in various different concentrations of p-NPP as a PTP1B substrate in the presence or absence of the active compound. The kinetic analysis was evaluated for Michaelis-Menten plot, Lineweaver-Burk plot, and Dixon plot. The Michaelis constant (Km), maximum velocity (Vmax), and the inhibition constants (Ki) were determined by using Sigma Plot software (13.0 software, SPCC Inc., Chicago, IL, USA).

Sequence of Acetylcholinesterase (P22303 whole entry): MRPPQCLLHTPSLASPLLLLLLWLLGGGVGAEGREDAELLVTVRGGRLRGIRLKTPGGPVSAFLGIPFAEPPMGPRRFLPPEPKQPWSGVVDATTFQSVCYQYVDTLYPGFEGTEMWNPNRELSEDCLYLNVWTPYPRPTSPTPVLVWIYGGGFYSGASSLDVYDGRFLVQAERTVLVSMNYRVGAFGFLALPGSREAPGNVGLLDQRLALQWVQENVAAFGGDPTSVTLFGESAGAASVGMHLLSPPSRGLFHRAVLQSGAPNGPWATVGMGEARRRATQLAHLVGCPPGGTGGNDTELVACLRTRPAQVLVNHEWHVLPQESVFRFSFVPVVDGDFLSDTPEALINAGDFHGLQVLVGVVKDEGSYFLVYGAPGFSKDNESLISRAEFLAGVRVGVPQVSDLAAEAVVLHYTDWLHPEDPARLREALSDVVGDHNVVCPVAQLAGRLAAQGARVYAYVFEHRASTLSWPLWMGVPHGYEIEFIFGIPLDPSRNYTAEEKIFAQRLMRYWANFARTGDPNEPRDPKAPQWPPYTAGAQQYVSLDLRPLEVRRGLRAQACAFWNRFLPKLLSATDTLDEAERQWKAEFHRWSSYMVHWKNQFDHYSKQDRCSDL

| Structure (SMILES) | IC50 [1] [µM] | IC50 [2] [µM] | Ki [3] [µM] |
| --- | --- | --- | --- |
| O=c1cc(-c2ccc(O)c(O)c2)oc2cc(O[C@@H]3O[C@H](CO)[C@@H](O)[C@H](O)[C@H]3O)cc(O)c12 | 74.7 | 71.6 |  |
| O=c1c(O)c(-c2ccc(O)c(O)c2)oc2cc(O)cc(O)c12 [2-(3,4-dihydroxyphenyl)-3,5,7-trihydroxy-chromone;hydrate] | 72.8 |  |  |
| O=c1c(O[C@@H]2O[C@H](CO)[C@@H](O)[C@H](O)[C@H]2O)c(-c2ccc(O)c(O)c2)oc2cc(O)cc(O)c12 [2-(3,4-dihydroxyphenyl)-5,7-dihydroxy-3-[(2S,3R,4S,5S,6R)-3,4,5-trihydroxy-6-(hydroxymethyl)oxan-2-yl]oxychromen-4-one] | 84.8 | 100 |  |
| COC(=O)[C@H]1O[C@@H](Oc2cc(O)c3c(=O)cc(-c4ccc(O)cc4)oc3c2)C(O[C@@H]2OC(CO)[C@@H](O)C(O)[C@@H]2O)[C@H]1O (some centres not stated) [Agriflavone (2)] | 63.4 | 100 |  |
| O=C(O[C@H]1OC(CO)[C@@H](O)[C@@H]2OC(=O)c3cc(O)c(O)c(c3O)-c3c(O)c(O)cc(c3O)C(=O)OC12)c1cc(O)c(O)c(O)c1 (some centres not stated) [Agritannin (1)] | 60.2 | 17 |  |
| O=c1oc2c(O)c(O)cc3c(=O)oc4c(O)c(O)cc1c4c23 [Elagic Acid] | 100 | 7.73 | 2.8 |
| O=c1c(O[C@@H]2O[C@H](CO)[C@@H](O)[C@H](O)[C@H]2O)c(-c2ccc(O)cc2)oc2cc(O)cc(O)c12 [Kaempferol 3-O-β-D-glucoside (6)] | 89.6 | 60.7 |  |
| O=c1c(O)c(-c2ccc(O)cc2)oc2cc(O[C@@H]3O[C@H](CO)[C@@H](O)[C@H](O)[C@H]3O)cc(O)c12 [Kaempferol 7-O-β-D-glucoside (4)] | 63.9 | 100 |  |
| O=C(O)[C@H]1O[C@@H](Oc2cc(O)c3c(=O)c(O)c(-c4ccc(O)cc4)oc3c2)[C@H](O)[C@@H](O)[C@@H]1O [Kaempferol 7-O-β-D-glucuronide (5)] | 64 | 48.3 |  |
| O=c1cc(-c2ccc(O)c(O[C@@H]3O[C@H](CO)[C@@H](O)[C@H](O)[C@H]3O)c2)oc2cc(O)cc(O)c12 [Luteolin 3'-O-β-D-glucoside (17)] | 74.6 | 100 |  |
| O=C(O)[C@H]1O[C@@H](Oc2cc(O)c3c(=O)cc(-c4ccc(O)c(O)c4)oc3c2)[C@H](O)[C@@H](O)[C@@H]1O [Luteolin 7-O-β-D-glucuronide (14)] | 88.1 | 38.1 |  |
| O=C(OCCCCOc1cc(O)c2c(=O)cc(-c3ccc(O)c(O)c3)oc2c1)[C@H]1O[C@@H](O)[C@H](O)[C@@H](O)[C@@H]1O [Luteolin 7-O-β-D-glucuronide butyl ester (16)] | 76.9 | 100 |  |
| O=C(OCOc1cc(O)c2c(=O)cc(-c3ccc(O)c(O)c3)oc2c1)[C@H]1O[C@@H](O)[C@H](O)[C@@H](O)[C@@H]1O [Luteolin 7-O-β-D-glucuronide methyl ester (15)] | 65.9 | 49.1 |  |
| O=c1cc(-c2ccc(O)cc2)oc2cc(O[C@@H]3O[C@H](CO)[C@@H](O)[C@H](O)[C@H]3O)cc(O)c12 [NSC-407303] | 100 | 100 |  |
| O=c1cc(-c2ccc(O)cc2)oc2cc(O)cc(O)c12 [Naringenin, 18] | 64.3 | 100 |  |
| O=c1c(O)c(-c2ccc(O)c(O[C@@H]3O[C@H](CO)[C@@H](O)[C@H](O)[C@H]3O)c2)oc2cc(O)cc(O)c12 [Quercetin 3'-O-β-D-glucoside (12)] | 89.2 | 100 |  |
| O=C(O)[C@H]1O[C@@H](Oc2cc(O)c3c(=O)cc(-c4ccc(O)cc4)oc3c2)[C@H](O)[C@@H](O)[C@@H]1O [apigenin-7-O-betaD-glucuronic acid] | 63 | 7.14 | 2.6 |
| COc1cc(C2Oc3c(OC)cc(CCCO)cc3C2CO)ccc1O[C@@H]1OC(CO)[C@@H](O)C(O)[C@@H]1O (stereo partly drawn) [dihydrodehydrodiconifeyl alcohol 9'-O-β-D-glucose (19)] | 92.8 | 100 |  |

— BindingDB's records for doi:10.7270/Q2Q52NH6 (Catholic University of Daegu, 2017)
